This passage reports inhibition and IC50 results from patent publication US20240287078A1, “QUINAZOLINE DERIVATIVES USEFUL AS RAS INHIBITORS” (Redx Pharma PLC, priority 2021, published 2024).

Format in all cases: biochemical
One experiment concerns the target T1, KRAS G13D (Homo sapiens, UniProt P01116, G13D).
T1 construct: aa1-188 KRAS WT, HRAS WT, NRAS WT, or KRAS containing the containing the G12D, G13D or Q61H amino acid substitutions
As to the kind of experiment: HTRF nucleotide exchange assay (NEA), KRAS G13D. The note with it: recombinant human KRAS aa1-188 G13D, 2 nM, 60 min compound incubation, EDA-GTP-DY647P1; for inhibition at 10 µM: 1 h. As for the experimental part:
(§1) HTRF Nucleotide Exchange Assay Method
The capacity of compounds to bind KRAS G12D, other KRAS mutants and wildtype RAS isoforms was quantified using a HTRF nucleotide exchange assay. […] After a 60-minute incubation at room temperature, Sul of 200 nM EDA-GTP-DY647P1 (diluted in assay buffer) was added to the plate. Following 30-minute incubation at room temperature, time-resolved fluorescence was measured on a PerkinElmer Envision plate reader. DMSO (0.3%) and unlabeled GDP (1 μM) or equivalent tool compound were used to generate the Max and Min assay signals, respectively. Data was analysed using a four-parameter logistic model to calculate IC50 values, with at least two independent replicates were performed for each compound.
(In TR-FRET formats the signal depends on donor and acceptor labels being close together.)

In the next experiment the target is T2, KRAS G12D (Homo sapiens, UniProt P01116, G12D).
T2 construct: aa1-188 KRAS WT, HRAS WT, NRAS WT, or KRAS containing the containing the G12D, G13D or Q61H amino acid substitutions
As to the kind of experiment: HTRF nucleotide exchange assay (NEA), KRAS G12D. The note with it: recombinant human KRAS aa1-188 G12D, 2 nM; 60 min compound incubation, EDA-GTP-DY647P1. The method, then:
as §1
(§2) The capacity of compounds to bind KRAS G12D, other KRAS mutants and wildtype RAS isoforms was quantified using a HTRF nucleotide exchange assay. Recombinant human RAS protein (2 nM; aa1-188 KRAS WT, HRAS WT, NRAS WT, or KRAS containing the containing the G12D, G13D or Q61H amino acid substitutions, or 4 nM KRAS; aa1-188 containing the G12V, G12C, G12A or G12S amino acid substitution, an N-terminal 6×His-tag and leader sequence), and 2 nM Europium-labeled anti-6×His antibody were mixed in assay buffer (10 mM HEPES pH7.3, 150 mM NaCl, 5 mM MgCl2, 0.05% BSA, 0.0025% NP-40 and 100 mM KF) with various concentrations of compound in a 384-well plate and a volume of 5 uL. After a 60-minute incubation at room temperature, Sul of 200 nM EDA-GTP-DY647P1 (diluted in assay buffer) was added to the plate. Following 30-minute incubation at room temperature, time-resolved fluorescence was measured on a PerkinElmer Envision plate reader. DMSO (0.3%) and unlabeled GDP (1 μM) or equivalent tool compound were used to generate the Max and Min assay signals, respectively. Data was analysed using a four-parameter logistic model to calculate IC50 values, with at least two independent replicates were performed for each compound.

In the next experiment the target is T3, KRAS G12S (Homo sapiens, UniProt P01116, G12S).
T3 construct: 4 nM KRAS; aa1-188 containing the G12V, G12C, G12A or G12S amino acid substitution
As to the kind of experiment: HTRF nucleotide exchange assay (NEA), KRAS G12S. The note with it: recombinant human KRAS aa1-188 G12S, 4 nM; 60 min compound incubation, EDA-GTP-DY647P1. The method, then:
as §1, §2

Another experiment deals with T4, KRAS G12V (Homo sapiens, UniProt P01116, G12V).
T4 construct: 4 nM KRAS; aa1-188 containing the G12V, G12C, G12A or G12S amino acid substitution
As to the kind of experiment: HTRF nucleotide exchange assay (NEA), KRAS G12V. Particulars: recombinant human KRAS aa1-188 G12V, 4 nM; 60 min compound incubation, EDA-GTP-DY647P1. The method, then: as §1, §2

A further experiment addresses T5, KRAS G12C (Homo sapiens, UniProt P01116, G12C).
T5 construct: 4 nM KRAS; aa1-188 containing the G12V, G12C, G12A or G12S amino acid substitution
As to the kind of experiment: HTRF nucleotide exchange assay (NEA), KRAS G12C. The note with it: recombinant human KRAS aa1-188 G12C, 4 nM; 60 min compound incubation, EDA-GTP-DY647P1. As for the experimental part: as §1, §2

The next experiment has as its target T6, KRAS Q61H (Homo sapiens, UniProt P01116, Q61H).
T6 construct: aa1-188 KRAS WT, HRAS WT, NRAS WT, or KRAS containing the containing the G12D, G13D or Q61H amino acid substitutions
As to the kind of experiment: HTRF nucleotide exchange assay (NEA), KRAS Q61H. Particulars: recombinant human KRAS aa1-188 Q61H, 2 nM; 60 min compound incubation, EDA-GTP-DY647P1. The method, then: as §1, §2

The target in another experiment is T7, KRAS WT (Homo sapiens, UniProt P01116).
T7 construct: aa1-188 KRAS WT, HRAS WT, NRAS WT
Kind of experiment: HTRF nucleotide exchange assay (NEA), KRAS WT. Particulars: recombinant human KRAS WT aa1-188, 2 nM; 60 min compound incubation, EDA-GTP-DY647P1. The method, then:
as §1, §2

The next experiment deals with T8, KRAS G12A (Homo sapiens, UniProt P01116, G12A).
T8 construct: 4 nM KRAS; aa1-188 containing the G12V, G12C, G12A or G12S amino acid substitution
As to the kind of experiment: HTRF nucleotide exchange assay (NEA), KRAS G12A. The note with it: recombinant human KRAS aa1-188 G12A, 4 nM; 60 min compound incubation, EDA-GTP-DY647P1. The method, then:
as §1, §2

T6 sequence (P01116 1-188 isoform P01116-2 Q61H): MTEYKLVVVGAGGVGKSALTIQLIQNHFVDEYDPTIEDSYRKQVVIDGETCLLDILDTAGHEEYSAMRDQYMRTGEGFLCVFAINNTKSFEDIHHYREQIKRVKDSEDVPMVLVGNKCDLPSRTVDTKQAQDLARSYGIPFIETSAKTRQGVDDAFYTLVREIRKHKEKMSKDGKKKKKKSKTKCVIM
T3 sequence (P01116 1-188 isoform P01116-2 G12S): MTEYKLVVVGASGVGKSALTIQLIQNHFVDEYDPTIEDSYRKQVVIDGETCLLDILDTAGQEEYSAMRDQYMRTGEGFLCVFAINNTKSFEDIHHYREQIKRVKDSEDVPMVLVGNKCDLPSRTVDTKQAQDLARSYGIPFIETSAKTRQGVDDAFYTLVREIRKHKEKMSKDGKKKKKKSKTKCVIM
T2 sequence (P01116 1-188 isoform P01116-2 G12D): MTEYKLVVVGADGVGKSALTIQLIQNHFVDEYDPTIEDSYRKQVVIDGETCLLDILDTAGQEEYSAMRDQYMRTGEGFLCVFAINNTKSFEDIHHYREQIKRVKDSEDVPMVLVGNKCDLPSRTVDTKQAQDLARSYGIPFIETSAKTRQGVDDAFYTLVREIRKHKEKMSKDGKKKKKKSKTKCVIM
T1 sequence (P01116 1-188 isoform P01116-2 G13D): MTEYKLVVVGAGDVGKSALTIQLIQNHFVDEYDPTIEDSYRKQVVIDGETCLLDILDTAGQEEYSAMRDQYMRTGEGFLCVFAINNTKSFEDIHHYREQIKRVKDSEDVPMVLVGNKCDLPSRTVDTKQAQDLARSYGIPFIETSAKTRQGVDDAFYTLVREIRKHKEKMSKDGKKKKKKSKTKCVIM
T8 sequence (P01116 1-188 isoform P01116-2 G12A): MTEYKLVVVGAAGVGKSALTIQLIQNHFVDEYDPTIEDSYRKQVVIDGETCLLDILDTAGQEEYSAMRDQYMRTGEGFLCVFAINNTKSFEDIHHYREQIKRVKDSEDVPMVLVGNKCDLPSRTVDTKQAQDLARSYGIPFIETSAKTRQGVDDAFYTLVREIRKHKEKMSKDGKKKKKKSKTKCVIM
T7 sequence (P01116 1-188 isoform P01116-2): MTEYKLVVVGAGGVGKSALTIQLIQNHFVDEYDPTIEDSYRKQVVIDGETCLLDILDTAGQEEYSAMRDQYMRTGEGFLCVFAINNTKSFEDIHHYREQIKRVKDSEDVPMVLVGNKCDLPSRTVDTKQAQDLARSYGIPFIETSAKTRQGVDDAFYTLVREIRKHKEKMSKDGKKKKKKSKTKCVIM
T4 sequence (P01116 1-188 isoform P01116-2 G12V): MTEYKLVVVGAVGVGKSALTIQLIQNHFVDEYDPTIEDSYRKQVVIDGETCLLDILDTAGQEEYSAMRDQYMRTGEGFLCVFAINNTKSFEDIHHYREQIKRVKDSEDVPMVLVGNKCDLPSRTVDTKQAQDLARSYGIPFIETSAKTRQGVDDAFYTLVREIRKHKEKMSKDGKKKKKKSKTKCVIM
T5 sequence (P01116 1-188 isoform P01116-2 G12C): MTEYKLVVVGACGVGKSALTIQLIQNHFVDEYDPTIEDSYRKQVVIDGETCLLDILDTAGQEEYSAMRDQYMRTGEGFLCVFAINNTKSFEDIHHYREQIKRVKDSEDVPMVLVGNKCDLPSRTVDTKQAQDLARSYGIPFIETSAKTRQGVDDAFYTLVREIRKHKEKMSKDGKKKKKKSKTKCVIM

With `C#Cc1c(F)ccc2cc(O)cc(-c3ccc4c(N5CCCOCC5)nc(OC[C@@]56CCCN5C[C@H](F)C6)nc4c3C)c12` (racemic) [Example 6, rac-5-ethynyl-6-fluoro-4-[2-[[(2R,8S)-2-fluoro-1,2,3,5,6,7-hexahydropyrrolizin-8-yl]methoxy]-8-methyl-4-(1,4-oxazepan-4-yl)quinazolin-7-yl]naphthalen-2-ol], the inhibition at 10 µM at KRAS G13D was in the range of 10 to 49%. For the same compound, the 50% inhibitory concentration (IC50) at KRAS G12D, on KRAS G12S, at KRAS G12V, on KRAS G12C, at KRAS Q61H and on KRAS WT was < 10 nM each time. The 50% inhibitory concentration (IC50) on KRAS G12A was < 10 nM.

Regarding `C#Cc1c(F)ccc2cc(O)cc(-c3ccc4c(N5CCCNC(=O)C5)nc(OC[C@@]56CCCN5C[C@H](F)C6)nc4c3C)c12` (racemic) [Example 24, 4-[7-(8-ethynyl-7-fluoro-3-hydroxy-1-naphthyl)-2-[[rac-(2R,8S)-2-fluoro-1,2,3,5,6,7-hexahydropyrrolizin-8-yl]methoxy]-8-methyl-quinazolin-4-yl]-1,4-diazepan-2-one], the concentration for half-maximal inhibition (IC50) on KRAS G12D is < 10 nM; on KRAS G12S, 10 to 100 nM; on KRAS G12V it was < 10 nM; at KRAS G12C it was < 10 nM; at KRAS Q61H it was 10 to 100 nM; at KRAS WT, < 10 nM. For the same compound, the IC50 on KRAS G12A was < 10 nM.

With `C#Cc1c(F)ccc2cc(O)cc(-c3ccc4c(N5CCCOCC5)nc(OC[C@@]56CCCN5C[C@H](F)C6)nc4c3F)c12` (racemic) [Example 26, 5-ethynyl-6-fluoro-4-[8-fluoro-4-(1,4-oxazepan-4-yl)-2-[[rac-(2R,8S)-2-fluoro-1,2,3,5,6,7-hexahydropyrrolizin-8-yl]methoxy]quinazolin-7-yl]naphthalen-2-ol], the concentration for half-maximal inhibition (IC50) on KRAS G12D, on KRAS G12S, on KRAS G12V, at KRAS G12C, on KRAS WT and on KRAS G12A was < 10 nM throughout.

Consider `Cc1c(-c2cc(O)cc3ccccc23)ccc2c(N3CCCOCC3)nc(OCC34CCCN3CCC4)nc12` [Example 2, 4-[2-(1,2,3,5,6,7-hexahydropyrrolizin-8-ylmethoxy)-8-methyl-4-(1,4-oxazepan-4-yl)quinazolin-7-yl]naphthalen-2-ol], for which, at KRAS G13D, the inhibition at 10 µM lay within 10 to 49%. Besides, the concentration for half-maximal inhibition (IC50) on KRAS G12D, at KRAS G12V, at KRAS G12C, at KRAS Q61H and on KRAS WT was 100 to 10000 nM throughout.

As for `Cc1c(-c2cc(O)cc3ccccc23)ccc2c(N3CCSCC3)nc(OCC34CCCN3CCC4)nc12` [Example 3, 4-[2-(1,2,3,5,6,7-hexahydropyrrolizin-8-ylmethoxy)-8-methyl-4-thiomorpholino-quinazolin-7-yl]naphthalen-2-ol], the IC50 at KRAS G13D, at KRAS G12D, at KRAS G12C and at KRAS WT was 100 to 10000 nM throughout.

Consider `Cc1c(-c2cccc3sc(N)c(C#N)c23)ccc2c(N3CCCOCC3)nc(OCC34CCCN3CCC4)nc12` [Example 22, 2-amino-4-[2-(1,2,3,5,6,7-hexahydropyrrolizin-8-ylmethoxy)-8-methyl-4-(1,4-oxazepan-4-yl)quinazolin-7-yl]benzothiophene-3-carbonitrile], for which the half-inhibitory concentration (IC50) on KRAS G12D was 10 to 100 nM; on KRAS G12S, 100 to 10000 nM; at KRAS G12V, < 10 nM; at KRAS G12C, < 10 nM; on KRAS Q61H it was 10 to 100 nM; at KRAS WT it was 10 to 100 nM. The IC50 on KRAS G12A lay within 10 to 100 nM.

In the case of `Oc1cc(-c2ccc3c(N4CCCOCC4)nc(OCC45CCCN4CCC5)nc3c2F)c2ccccc2c1` [Example 25, 4-[8-fluoro-2-(1,2,3,5,6,7-hexahydropyrrolizin-8-ylmethoxy)-4-(1,4-oxazepan-4-yl)quinazolin-7-yl]naphthalen-2-ol], the inhibition at 10 µM at KRAS G13D was 10 to 49%. Besides, the IC50 lay in the range of 10 to 100 nM on KRAS G12D; 100 to 10000 nM at KRAS G12S; 10 to 100 nM on KRAS G12V; 10 to 100 nM on KRAS G12C; 100 to 10000 nM at KRAS Q61H; 10 to 100 nM on KRAS WT. For the same compound, the concentration for half-maximal inhibition (IC50) at KRAS G12A lay within 10 to 100 nM.

In the case of `N#Cc1cc2c(N3CCCOCC3)nc(OCC34CCCN3CCC4)nc2c(F)c1-c1cc(O)cc2ccccc12` [Example 27, 8-fluoro-2-(1,2,3,5,6,7-hexahydropyrrolizin-8-ylmethoxy)-7-(3-hydroxy-1-naphthyl)-4-(1,4-oxazepan-4-yl)quinazoline-6-carbonitrile], the IC50 lay within 10 to 100 nM on KRAS G12D; 100 to 10000 nM at KRAS G12S; 10 to 100 nM on KRAS G12V; 10 to 100 nM at KRAS G12C; 10 to 100 nM at KRAS WT; 100 to 10000 nM at KRAS G12A.

The inhibition is the percentage by which the read-out fell short of the control. A word on the IC50: it is the concentration that inhibits the measured activity by half.
